Experimental data published in patent US9695155B2, “Herbicidal substituted pyrimidinyloxy benzene compounds” (E. I. DU PONT DE NEMOURS AND COMPANY, priority 2013, dated 2017).

Legend:
[1] = system: wheat; experiment: Test A postemergence; type: in vivo, Triticum aestivum
Outline: (§1)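 Visual 0–100 rating (100 = complete control) taken about 10 d post-treatment relative to untreated checks. Preemergence: directed soil spray on sown loam/sand pots. Postemergence: seedlings 2–10 cm, 1–2 leaf. Non-phytotoxic solvent formulation with surfactant.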

[2] = system: pigweed; experiment: Test A postemergence; type: in vivo, Amaranthus retroflexus
Outline: as §1

[3] = system: rice; experiment: Test B flooded paddy test; type: in vivo, Oryza sativa; conditions: Flood, 250 g ai/ha; 0 to 100 scale where 0 is no effect and 100 is complete control
Procedure: (§2) Plant species in the flooded paddy test selected from rice (Oryza sativa), sedge, umbrella (small-flower umbrella sedge, Cyperus difformis), (Heteranthera limosa), and barnyardgrass (Echinochloa crus-galli) were grown to the 2-leaf stage for testing. At time of treatment, test pots were flooded to 3 cm above the soil surface, treated by application of test compounds directly to the paddy water, and then maintained at that water depth for the duration of the test. Treated plants and controls were maintained in a greenhouse for 13 to 15 days, after which time all species were compared to controls and visually evaluated. Plant response ratings, summarized in Table B, are based on a scale of 0 to 100 where 0 is no effect and 100 is complete control. A dash (-) response means no test result.

[4] = system: giant foxtail; experiment: Test A preemergence; type: in vivo, Setaria faberii; conditions: for Foxtail, Giant plant response rating: 500 g ai/ha
Outline: as §1

[5] = system: pigweed; experiment: Test A preemergence; type: in vivo, Amaranthus retroflexus; conditions: for Pigweed plant response rating: 500 g ai/ha
Text: (§3) Seeds of plant species selected from barnyardgrass (Echinochloa crus-galli), kochia (Kochia scoparia), ragweed (common ragweed, Ambrosia elatior), Italian ryegrass (Lolium multiflorum), large (Lg) crabgrass (Digitaria sanguinalis), giant foxtail (Setaria faberii), morningglory (Ipomoea spp.), pigweed (Amaranthus retroflexus), velvetleaf (Abutilon theophrasti), wheat (Triticum aestivum), and corn (Zea mays) were planted into a blend of loam soil and sand and treated preemergence with a directed soil spray using test chemicals formulated in a non-phytotoxic solvent mixture which included a surfactant.
(§4) At the same time, plants selected from these crop and weed species and also blackgrass (Alopecurus myosuroides), and galium (catchweed bedstraw, Galium aparine) were planted in pots containing the same blend of loam soil and sand and treated with postemergence applications of test chemicals formulated in the same manner. Plants ranged in height from 2 to 10 cm and were in the one- to two-leaf stage for the postemergence treatment. Treated plants and untreated controls were maintained in a greenhouse for approximately 10 days, after which time all treated plants were compared to untreated controls and visually evaluated for injury. Plant response ratings, summarized in Table A, are based on a 0 to 100 scale where 0 is no effect and 100 is complete control. A dash (-) response means no test result.

[6] = system: Heteranthera limosa; experiment: Test B flooded paddy test; type: in vivo; conditions: Flood, 250 g ai/ha; 0 to 100 scale where 0 is no effect and 100 is complete control
Procedure: as §2

[7] = system: large (Lg) crabgrass; experiment: Test A preemergence; type: in vivo, Digitaria sanguinalis; conditions: for Crabgrass, Large plant response rating: 500 g ai/ha
Outline: as §1

[8] = system: corn; experiment: Test A preemergence; type: in vivo, Zea mays; conditions: for Corn plant response rating: 500 g ai/ha
Text: as §3, §4

[9] = system: sedge, umbrella; experiment: Test B flooded paddy test; type: in vivo, Cyperus difformis; conditions: Flood, 250 g ai/ha; 0 to 100 scale where 0 is no effect and 100 is complete control
Procedure: as §2

[10] = system: barnyardgrass; experiment: Test A postemergence; type: in vivo, Echinochloa crus-galli
Text: as §3, §4

[11] = system: morningglory; experiment: Test A postemergence; type: in vivo, Ipomoea spp.; conditions: 0 to 100 scale where 0 is no effect and 100 is complete control
Text: as §3, §4

[12] = system: giant foxtail; experiment: Test A postemergence; type: in vivo, Setaria faberii
Outline: as §1

[13] = system: corn; experiment: Test A postemergence; type: in vivo, Zea mays
Outline: as §1

[14] = system: large (Lg) crabgrass; experiment: Test A postemergence; type: in vivo, Digitaria sanguinalis
Outline: as §1

[15] = system: velvetleaf; experiment: Test A preemergence; type: in vivo, Abutilon theophrasti; conditions: for Velvetleaf plant response rating: 500 g ai/ha
Text: as §3, §4

[16] = system: velvetleaf; experiment: Test A postemergence; type: in vivo, Abutilon theophrasti
Outline: as §1

[17] = system: morningglory; experiment: Test A preemergence; type: in vivo, Ipomoea spp.; conditions: for Morningglory plant response rating: 500 g ai/ha
Outline: as §1

[18] = system: barnyardgrass; experiment: Test B flooded paddy test; type: in vivo, Echinochloa crus-galli; conditions: Flood, 250 g ai/ha; 0 to 100 scale where 0 is no effect and 100 is complete control
Procedure: as §2

[19] = system: barnyardgrass; experiment: Test A preemergence; type: in vivo, Echinochloa crus-galli; conditions: for Barnyardgrass plant response rating: 500 g ai/ha
Text: as §3, §4

[20] = system: wheat; experiment: Test A preemergence; type: in vivo, Triticum aestivum; conditions: for Wheat plant response rating: 500 g ai/ha
Outline: as §1

[21] = 125 g ai/ha, 0 to 100 scale where 0 is no effect and 100 is complete control
[22] = 500 g ai/ha, 0 to 100 scale where 0 is no effect and 100 is complete control
[23] = 0 to 100 scale where 0 is no effect and 100 is complete control
[24] = 500 g ai/ha, 0 to 100 scale, 0 no effect, 100 complete control
[25] = 0 to 100 scale, 0 no effect, 100 complete control, approx. 10 days

SMILES: COc1ccc(Br)c(-n2cc(Br)cn2)c1Oc1ncc(Cl)cn1 [Compound 201]
- Wheat plant response rating [1, 21]: 0
- Plant response rating, Wheat [1, 22]: 0
- Pigweed plant response rating [2, 21]: 20
- Plant response rating, Pigweed [2, 22]: 40
- Plant response rating, Rice [3]: 0
- Foxtail, Giant plant response rating (0 to 100 scale) ([4]; 125 g ai/ha): 20
- Foxtail, Giant plant response rating [4, 23]: 50
- Pigweed plant response rating (0 to 100 scale) ([5]; 125 g ai/ha): 0
- Pigweed plant response rating [5, 23]: 0
- Plant response rating, Ducksalad [6]: 40
- Crabgrass, Large plant response rating (0 to 100 scale) ([7]; 125 g ai/ha): 20
- Crabgrass, Large plant response rating [7, 23]: 40
- Corn plant response rating (0 to 100 scale) ([8]; 125 g ai/ha): 0
- Corn plant response rating [8, 23]: 0
- Plant response rating, Sedge, Umbrella [9]: 20
- Barnyardgrass plant response rating [10, 21]: 0
- Plant response rating, Barnyardgrass [10, 22]: 10
- Morningglory plant response rating ([11]; 125 g ai/ha): 20
- Plant response rating, Morningglory ([11]; 500 g ai/ha): 20
- Foxtail, Giant plant response rating [12, 21]: 0
- Plant response rating, Foxtail, Giant [12, 22]: 40
- Corn plant response rating [13, 21]: 0
- Plant response rating, Corn [13, 22]: 0
- Crabgrass, Large plant response rating [14, 21]: 0
- Plant response rating, Crabgrass, Large [14, 22]: 30
- Velvetleaf plant response rating (0 to 100 scale) ([15]; 125 g ai/ha): 0
- Velvetleaf plant response rating [15, 23]: 0
- Velvetleaf plant response rating [16, 21]: 30
- Plant response rating, Velvetleaf [16, 22]: 70
- Morningglory plant response rating (0 to 100 scale) ([17]; 125 g ai/ha): 0
- Morningglory plant response rating [17, 23]: 0
- Plant response rating, Barnyardgrass [18]: 0
- Barnyardgrass plant response rating (0 to 100 scale, 0 is no effect, 100 is complete control) ([19]; 125 g ai/ha): 0
- Barnyardgrass plant response rating [19, 23]: 0
- Wheat plant response rating (0 to 100 scale) ([20]; 125 g ai/ha): 0
- Wheat plant response rating [20, 23]: 0

SMILES: Cc1nn(-c2ccccc2Oc2ncc(Cl)cn2)cc1Br [Compound 37]
- Plant response rating, Wheat [1, 21]: 0
- Plant response rating, Wheat [1, 24]: 0
- Plant response rating, Pigweed [2, 21]: 0
- Plant response rating, Pigweed [2, 24]: 10
- Plant response rating, Rice [3]: 0
- Plant response rating, Foxtail, Giant [4, 21]: 10
- Foxtail, Giant plant response rating [4, 25]: 30
- Plant response rating, Pigweed [5, 21]: 0
- Pigweed plant response rating [5, 25]: 0
- Plant response rating, Ducksalad [6]: 0
- Plant response rating, Crabgrass, Large [7, 21]: 10
- Crabgrass, Large plant response rating [7, 25]: 80
- Plant response rating, Corn [8, 21]: 0
- Corn plant response rating [8, 25]: 0
- Plant response rating, Sedge, Umbrella [9]: 0
- Plant response rating, Barnyardgrass [10, 21]: 0
- Plant response rating, Barnyardgrass [10, 24]: 0
- Plant response rating, Foxtail, Giant [12, 21]: 0
- Plant response rating, Foxtail, Giant [12, 24]: 0
- Plant response rating, Corn [13, 21]: 0
- Plant response rating, Corn [13, 24]: 0
- Plant response rating, Crabgrass, Large [14, 21]: 0
- Plant response rating, Crabgrass, Large [14, 24]: 0
- Plant response rating, Velvetleaf [15, 21]: 10
- Velvetleaf plant response rating [15, 25]: 10
- Plant response rating, Velvetleaf [16, 21]: 20
- Plant response rating, Velvetleaf [16, 24]: 40
- Plant response rating, Morningglory [17, 21]: 0
- Morningglory plant response rating [17, 25]: 0
- Plant response rating, Barnyardgrass [18]: 0
- Plant response rating, Barnyardgrass [19, 21]: 0
- Barnyardgrass plant response rating [19, 25]: 10
- Plant response rating, Wheat [20, 21]: 0
- Wheat plant response rating [20, 25]: 0
